Experiments:
MKP3^KBD = biological target: T1, MKP3^KBD (Homo sapiens, UniProt Q16828); assay: NMR titration (1H-15N HSQC); assay type: binding; details: 15N-labeled MKP3^KBD titrated with BCI, analysed at 1:4 M ratio
T1 construct: MKP3(1–154) (MKP3^KBD); made in house; host or cells: Escherichia coli BL21(DE3)
T1 sequence (Q16828 1-154): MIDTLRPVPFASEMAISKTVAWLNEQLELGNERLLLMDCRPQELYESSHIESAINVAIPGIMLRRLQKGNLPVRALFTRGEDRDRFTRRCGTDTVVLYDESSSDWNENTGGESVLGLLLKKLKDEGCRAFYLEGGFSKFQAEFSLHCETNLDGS
Description: (§1) NMR data were collected at 298 K on a Bruker AVANCE NEO 800 MHz spectrometer (Bruker BioSpin) equipped with a ^1H&^19F/^13C/^15N TCI cryogenic probe. Backbone resonances of MKP3^1–154 were assigned using 2D/3D experiments, including 2D ^1H–^15N HSQC and 3D ^1H/^13C/^15N CBCA(CO)NH, HNCACB, HNCO, and HN(CA)CO, performed with uniformly ^13C/^15N labeled protein at a final concentration of 0.39 mM in buffer containing 20 mM imidazole (pH 6.0), 100 mM NaCl, 5 mM DTT, 0.5 mM EDTA, and 5% (v/v) D2O. The buffer used for backbone resonance assignment was similar to that used for the previously reported NMR structure ([15]). NMR titration experiments were conducted using ^15N-labeled MKP3^1–154, MKP3^14–152, MKP3^204–350, MKP1^1–141, MKP2^5–159, MKPX^1–140, MKP4^1–143, and MKP5^139–287. 2D ^1H–^15N HSQC spectra of ^15N-labeled MKPs^KBD (0.1 mM) were acquired in the absence and presence of BCI (50 mM stock in DMSO-d6) in buffer containing 50 mM KH2PO4–K2HPO4 (pH 7.2), 100 mM KCl, 1 mM Tris(2-carboxyethyl)phosphine hydrochloride, 1 mM EDTA, and 5% (v/v) D2O. Control experiments, in which only the corresponding volume of DMSO-d6 was added to ^15N-labeled proteins, were performed to exclude possible effects of DMSO on the interactions. For ^15N T1 measurements, the relaxation delay times were set to 20 (×2), 100, 200 (×2), 300, 400, 600 (×2), 800, 1200, and 1600 ms. For ^15N T2 measurements, the delay times were 7.84, 15.68 (×2), 23.52, 31.36 (×2), 39.2, 47.04 (×2), 54.88, 62.72, 78.4, 94.08, and 109.76 ms. The relaxation rates R1 (1/T1) and R2 (1/T2) for each residue were determined by fitting the peak intensities from spectra acquired at the various delay times to a single-exponential decay function: I/I0 = exp(-R1,2·t), where I0 is the intensity at t = 0, and I is the intensity at a delay time t. Repeated measurements were used to estimate the uncertainties of the R1 and R2 values via Monte Carlo analysis. Heteronuclear steady-state ^1H–^15N NOE experiments were acquired in an interleaved mode, with 5 s of ^1H saturation for NOE build-up and 5 s of relaxation delay for the reference spectra. Repeated experiments were performed to estimate uncertainties, and the propagated error for each NOE value was calculated using the following equation: σNOE = NOE × ((σsat/Isat)^2+(σunsat/Iunsat)^2)^1/2, where σsat and σunsat are the SDs of the saturated and unsaturated spectra, respectively, and Isat and Iunsat are the corresponding signal intensities. NMR data were processed using TopSpin 4.1.1 (Bruker BioSpin) or NMRPipe ([54]) and analyzed with POKY ([55]).

MKP4^KBD = biological target: T2, MKP4^KBD (Homo sapiens, UniProt Q99956); assay: NMR titration (1H-15N HSQC); assay type: binding; details: molar ratio 1:15
T2 construct: MKP2^5–159, MKPX^1–140, MKP4^1–143, and MKP5^139–287; made in house; host or cells: Escherichia coli BL21(DE3)
T2 sequence (Q99956 1-143): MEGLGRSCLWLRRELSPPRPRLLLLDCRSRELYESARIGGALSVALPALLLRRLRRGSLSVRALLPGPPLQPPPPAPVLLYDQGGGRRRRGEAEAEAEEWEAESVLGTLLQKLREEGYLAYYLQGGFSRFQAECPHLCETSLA
Description: as §1

MKP3^CD = biological target: T3, MKP3^CD (Homo sapiens, UniProt Q16828); assay: NMR titration (1H-15N HSQC); assay type: binding
T3 construct: ^15N-labeled MKP3^1–154, MKP3^14–152, MKP3^204–350; made in house; host or cells: Escherichia coli BL21(DE3)
T3 sequence (Q16828 204-350): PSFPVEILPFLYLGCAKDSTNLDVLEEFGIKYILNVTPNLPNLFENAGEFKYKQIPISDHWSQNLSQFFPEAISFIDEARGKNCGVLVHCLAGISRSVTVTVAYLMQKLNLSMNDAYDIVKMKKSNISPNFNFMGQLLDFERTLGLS
Description: as §1

MKP1^KBD = biological target: T4, MKP1^KBD (Homo sapiens, UniProt P28562); assay: NMR titration (1H-15N HSQC); assay type: binding; details: molar ratio 1:15
T4 construct: MKP1(1–141) (MKP1^KBD); made in house; host or cells: Escherichia coli BL21(DE3)
T4 sequence (P28562 1-141): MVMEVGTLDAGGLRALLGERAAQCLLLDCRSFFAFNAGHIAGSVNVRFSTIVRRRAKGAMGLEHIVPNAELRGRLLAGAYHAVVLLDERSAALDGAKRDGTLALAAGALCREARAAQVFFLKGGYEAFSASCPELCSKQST
Description: as §1

MKPX^KBD = biological target: T5, MKPX^KBD (Homo sapiens, UniProt Q16829); assay: NMR titration (1H-15N HSQC); assay type: binding; details: molar ratio 1:2
T5 construct: MKPX(1–140) (MKPX^KBD); made in house; host or cells: Escherichia coli BL21(DE3)
T5 sequence (Q16829 1-140 isoform Q16829-2): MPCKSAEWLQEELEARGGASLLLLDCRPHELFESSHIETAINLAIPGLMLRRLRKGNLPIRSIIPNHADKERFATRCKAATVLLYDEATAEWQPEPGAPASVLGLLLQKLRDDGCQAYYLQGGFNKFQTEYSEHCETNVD
Description: as §1

MKP3 = details: cited from earlier work
[1] = biological target: T6, MKP3^KBD and ERK2 complex (Homo sapiens, UniProt Q16828); assay: NMR competitive binding titration of ERK2 and BCI; details: excess BCI added to MKP3^KBD and ERK2 complex
T6 construct: spectra of ^15N-MKP3^1–154 in the presence of ERK2; made in house; host or cells: Escherichia coli BL21(DE3)
T6 sequence (Q16828 1-154): T1 sequence (Q16828 1-154)
Description: NMR data were collected at 298 K on a Bruker AVANCE NEO 800 MHz spectrometer (Bruker BioSpin) equipped with a ^1H&^19F/^13C/^15N TCI cryogenic probe. Backbone resonances of MKP3^1–154 were assigned using 2D/3D experiments, including 2D ^1H–^15N HSQC and 3D ^1H/^13C/^15N CBCA(CO)NH, HNCACB, HNCO, and HN(CA)CO, performed with uniformly ^13C/^15N labeled protein at a final concentration of 0.39 mM in buffer containing 20 mM imidazole (pH 6.0), 100 mM NaCl, 5 mM DTT, 0.5 mM EDTA, and 5% (v/v) D2O. The buffer used for backbone resonance assignment was similar to that used for the previously reported NMR structure ([15]). […] The relaxation rates R1 (1/T1) and R2 (1/T2) for each residue were determined by fitting the peak intensities from spectra acquired at the various delay times to a single-exponential decay function: I/I0 = exp(-R1,2·t), where I0 is the intensity at t = 0, and I is the intensity at a delay time t. […] Repeated experiments were performed to estimate uncertainties, and the propagated error for each NOE value was calculated using the following equation: σNOE = NOE × ((σsat/Isat)^2+(σunsat/Iunsat)^2)^1/2, where σsat and σunsat are the SDs of the saturated and unsaturated spectra, respectively, and Isat and Iunsat are the corresponding signal intensities. NMR data were processed using TopSpin 4.1.1 (Bruker BioSpin) or NMRPipe ([54]) and analyzed with POKY ([55]).

perturbation of NMR spectrum (MKP3^KBD): significant peak broadening | perturbation of NMR spectrum (MKP4^KBD): No significant NMR peak perturbation | perturbation of NMR spectrum (MKP3^CD; excess BCI, without DMSO (low-activity state)): no detectable interaction | perturbation of NMR spectrum (MKP3^CD; with 25% DMSO (high-activity state)): failed to perturb the spectrum | perturbation of NMR spectrum (MKP1^KBD): No significant NMR peak perturbation | perturbation of NMR spectrum (MKPX^KBD): Significant peak broadening
Compound: O=C1/C(=C/c2ccccc2)C(NC2CCCCC2)c2ccccc21 (stereo not drawn) [BCI, (E)-2-benzylidene-3-(cyclohexylamino)-2,3-dihydro-1H-inden-1-one]
effect on ERK2-mediated MKP3 activity (MKP3; ERK2-stimulated, OMFP substrate): inhibits | effect on MKP3's basal activity toward OMFP (MKP3; basal, without ERK2): does not affect | effect on ERK2-bound MKP3^KBD spectrum [1]: reversion of specific MKP3^KBD peaks to their ERK2-unbound state

Reference: paper PMC12444472, “BCI inhibits MKP3 by targeting the kinase-binding domain and disrupting ERK2 interaction” (The Journal of Biological Chemistry, 2025)
